pEC50: −log10 of the molar value.
Assays:
Format in all cases: cell-based
[1] = system: CSES2-SO2/3 ES-derived endodermal progenitors; assay: CellTiter-Glo counter-screen, endodermal progenitors; conditions: Homo sapiens; for pEC50: 24 hours, differentiated cells
Procedure: CSES2-SO2/3 embryonic stem cells were differentiated to endodermal progenitors using an established protocol [Duan et al. Stem Cells 28:674-686 (2010)]. Undifferentiated cells were seeded at a density of 10,000 cells/cm^2 on MatrigelT™-coated plates, with mTeSR1 medium. The next day (day 1), medium was replaced to serum-free RPMI-1640, supplemented with 2 mM glutamine, 100 ng/ml Activin A 60 μg/ml of G418 geneticin sulfate and 0.3 μg/ml of puromycin. From day 3 to day 8, the same medium was also supplemented with 1×B27 supplement (Invitrogen) and 0.5 mM sodium butyrate. The cellular identity of the cells as endodermal progenitors was verified by quantifying the percentage of green SOX17+ cells, and the percentage of CXCR4+ cells, using a Guava® EasyCyte™ Plus flow cytometry system (Millipore). Further validation was obtained by fluorescence-staining of the cells with an antibody against the early endodermal surface marker CXCR4 (CXCR4-PE antibody, 1:25; BD Biosciences). The percentage of CXCR4+ cells was also quantified using the Guava® EasyCyte™ Plus flow cytometry system.
696 confirmed hits from the confirmation screen were tested for profiling in a panel of 13 different cell types, using the same screening protocol described above (except in the case of embryonic stem cell-derived neural stem cells (NSCs) and mesenchymal stem cells (MSCs), for which the protocol is described below). As discussed below, compounds were tested either in dose-dependent multiple concentration manner or in single concentration manner. […] BJ-iPS28 cell line and the BJ fibroblasts from which it was derived were screened at 6 concentrations ranging from 50 μM to 200 nM with 1:3 serial dilution steps. Cardiomyocytes were screened in one concentration of 20 μM. HeLa and NTERA-2 cell lines were screened in duplicates of 20 μM. Kelly and Huh-7 were screened in triplicates of 20 μM. Hepatocytes were screened in duplicates of 20 μM in the original 96-well plates in which the cells arrived (40,000 cells per well, in 160 μl medium, the volumes of all reagents involved were adjusted accordingly). MSCs and NSCs were screened in duplicates of 12.5 μM.
In order to identify highly-selective cytotoxic inhibitors of hPSCs, the 696 cytotoxic inhibitors of hPSCs identified as described in Example 1 were counter-screened as described in the Materials and Methods section against other cell types, representative of all germ layers and developmental stages. Importantly, many of these cell types were differentiated from human ES or iPS cells. The screened cell types included ES-derived neural stem cells (NSCs), ES-derived mesenchymal stem cells (MSCs), ES-derived endodermal progenitor cells, ES-derived hepatocytes, iPS-derived cardiomyocytes, iPS-derived fibroblasts of origin (BJ fibroblasts), and three cancer cell lines: neuroblastoma (Kelly), cervical cancer (HeLa) and hepatocarcinoma (Huh7). The cell types and their relationship to stem cells are depicted schematically in FIG. 14.
The identified compounds were screened at 8 concentrations using both the undifferentiated red cells and the differentiated green cells, and reliable EC50 values were thereby calculated for the genetically identical differentiated and undifferentiated cells.

[2] = system: H9 human embryonic stem cells; assay: CellTiter-Glo luminescent cell viability screen, H9; conditions: pluripotent stem cells
Procedure: 5,000 CSES2 cells were plated in 50 μl per well of mTeSR1 medium into black 384-well clear-bottom plates (Falcon BD) pre-coated with Matrigel™ using WellMate cell dispenser (Matrix, Hudson, N.H.). 24 hours after plating, medium was replaced with 25 μl of fresh medium and 25 μl of 40 μM compound medium solutions in 1% DMSO from the intermediate compound dilution plates. The plates were incubated at 37° C., in a 5% CO2 atmosphere, for the entire duration of the screen, apart from the time required for liquid handling. Cell viability was determined 24 hours after compound treatment using CellTiter-Glo® luminescent cell viability assay kits. 50 μl of CellTiter-Glo® reagent was added to each well of the assay plates and fully mixed. After incubation at room temperature for 15 minutes, 25 μl of liquid was transferred from each well into a white opaque-bottom 384-well plate (PerkinElmer), and luminescence was measured using an EnVision® plate reader (PerkinElmer). 16 neutral control wells (0.5% DMSO) and 8 positive control wells (5 μM amsacrine hydrochloride were used to normalize the compound effect. All liquid transfer steps were handled with a Biomek® FXP Laboratory Automation Workstation (Beckman Coulter, Fullerton, Calif.) and Muitidrop Combi liquid dispenser (Thermo Fisher, Waltham, Mass.). An Assay Analyzer (Genedata, Basel, Switzerland) was used for data pattern correction and calculation. The Spotfire software (Spotfire, Somerville, Mass.) was used for data illustration.
The compounds identified as hits from the primary screen were retested at a concentration of 20 μM against three pluripotent stem cell lines (CSES2, H9 and CSES2-SO2/3) for confirmation screens.
The raw intensity data for each well were background-corrected by subtraction of the median intensities across all positive control wells on the same plate, and used to calculate the inhibitory effect of each compound per cell line. A Genedata Assay Analyzer and Condoseo were used for data pattern correction, calculation and IC50 curve fitting. A Z′ factor was determined for each plate.

[3] = system: ES-derived mesenchymal stem cells; assay: CellTiter-Glo counter-screen, mesenchymal stem cells; conditions: Homo sapiens, at 20 μM (table title)

SMILES | pEC50 [1] | inhibition at 20 µM [1] [%] | inhibition at 20 µM [2] [%] | inhibition at 12.5 µM [3] [%]
O=C(NNc1ccccc1)c1ccncc1 [PluriSIn #1, isonicotinic acid N′-phenylhydrazide] | < 4.30 | 6.5 | 88.6 | -4.9
O=C(Nc1ccccc1)n1cc(F)c(=O)[nH]c1=O [PluriSIn #2] | < 4.30 | -8.3 | 65.4 | -1.4
Nc1cc(N)cc(COc2ccc(-c3ccccc3)cc2)c1 [PluriSIn #3] | < 4.30 | -9.2 | 110 | 3.3
O=C(NCCc1ccc(O)cc1)c1ccc(N2CCCCC2)cc1 [PluriSIn #4] | < 4.30 | -1.1 | 74.1 | -8.1
O=S(=O)(NNc1ccccc1)c1ccc2ccccc2c1 [PluriSIn #5] | < 4.30 | 12.9 | 82.2 | 6.4
Cc1ccc(NNC(=O)C(O)(c2ccccc2)c2cccs2)cc1 (centres unmarked) [PluriSIn #6, 2-hydroxy-2-(thiophen-2-yl)-2-phenylacetic acid 4-methyl-N′-phenylhydrazide] | < 4.30 | -2.5 | 90.1 | -19.7
CC(=O)Oc1ccc(/C=C/c2ccc3c(c2)CCN3C)cc1 [PluriSIn #7] | < 4.30 | 24.8 | 109 | 35.8
Cc1oc2ccccc2c1/C=N/Nc1ccccc1 [PluriSIn #8] | < 4.30 | 0 | 85.5 | -33.8
C/C(=N\O)NNc1ccc(Cl)cc1 [PluriSIn #9] | < 4.30 | 11.9 | 101 | -12.6
CCCCCC(=O)NNc1ccc(Cl)cc1 [PluriSIn #10] | < 4.30 | 33.8 | 88 | 3.9
CCOC(=O)CN1CC(=O)/C(=C\NNc2ccccc2)C1=O [PluriSIn #11] | < 4.30 | 4.3 | 94 | 6
CCN(CC)C(=O)C(=O)c1c(-c2ccccc2)[nH]c2c1sc1ccccc12 [PluriSIn #12] | < 4.30 |  | 95.8 | -7.3
O=C1C=CC=C1/C=C/C(=N\Nc1ccccc1)c1ccccc1 [PluriSIn #13] | < 4.30 | 15.8 | 101 | -7.3
O=C(NN(C(=O)c1ccccc1)c1ccccc1)c1ccc(Cl)cc1 [PluriSIn #14] | < 4.30 | 18.8 | 79.4 | -1.5
C(=N\C1CCC(CC2CCCCC2)CC1)/OC1CCOC1 (centres unmarked) [PluriSIn #15] | < 4.30 | 2.1 | 79.5 | 12

Reference: patent US20180153830A1, “SELECTIVE INHIBITORS OF UNDIFFERENTIATED CELLS” (Yissum Research Development Company of the Hebrew …, priority 2012, published 2018)
